# From ChEMBL document CHEMBL4406908, “Identification of neomacrophorins isolated from Trichoderma sp. 1212-03 as proteasome inhibitors” (Bioorg Med Chem, 2019)
# Calls of active or inactive are those of the source. The rule behind the calls is not given here.
# Experiments:
# [1] = target: Proteasome Macropain subunit (Homo sapiens) (UniProt P49721); assay: Inhibition of trypsin-like activity of beta2 subunit of 20S proteasome in human erythrocytes using Boc-LRR-MCA as substrate preincubated with enzyme for 10 mins followed by substrate addition and measured after 3 hrs by fluorescence spectrophotometric analysis; type: cell-based
# HL-60 [2] = assay: Induction of apoptosis in human HL60 cells assessed as increase in DNA fragmentation incubated for 4 hrs by ethidium bromide staining based agarose gel electrophoresis method; type: functional, cell-based
# HL-60 [3] = assay: Antiproliferative activity against human HL60 cells assessed as cell growth inhibition incubated for 2 days by MTT assay; type: functional, cell-based; conditions: HL-60, 48 h
# HL-60 [4] = assay: Induction of apoptosis in human HL60 cells assessed as DNA fragmentation at 50 uM preincubated with 50 uM pan caspase inhibitor, z-VAD-FMK for 1 hr followed by incubation with compound for 4 hrs by ethidium bromide staining based agarose gel electrophoresis method; type: functional, cell-based
# [5] = target: T1, Proteasome Macropain subunit MB1 (Homo sapiens) (UniProt P28074); assay: (§1) Inhibition of chymotrypsin-like activity of beta5 subunit of 20S proteasome in human erythrocytes using Suc-LLVY-MCA as substrate preincubated with enzyme for 10 mins followed by substrate addition and measured after 3 hrs by fluorescence spectrophotometric analysis
# T1 sequence (whole entry): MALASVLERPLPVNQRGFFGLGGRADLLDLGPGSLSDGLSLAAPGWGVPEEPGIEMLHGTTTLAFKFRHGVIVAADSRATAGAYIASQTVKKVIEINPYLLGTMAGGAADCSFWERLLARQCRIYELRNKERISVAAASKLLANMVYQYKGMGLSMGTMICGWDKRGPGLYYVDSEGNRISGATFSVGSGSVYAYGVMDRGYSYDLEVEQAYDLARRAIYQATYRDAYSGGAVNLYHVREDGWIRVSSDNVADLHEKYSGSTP
# [6] = target: T2, Proteasome Macropain subunit MB1 (Homo sapiens, UniProt P28074); assay: as §1
# T2 sequence (P28074 whole entry): T1 sequence (whole entry)
# [7] = target: T3, Proteasome component C5 (Homo sapiens) (UniProt P20618); assay: Inhibition of caspase-like activity of beta1 subunit of 20S proteasome in human erythrocytes using Z-LLE-MCA as substrate preincubated with enzyme for 10 mins followed by substrate addition and measured after 3 hrs by fluorescence spectrophotometeric analysis
# T3 sequence (whole entry): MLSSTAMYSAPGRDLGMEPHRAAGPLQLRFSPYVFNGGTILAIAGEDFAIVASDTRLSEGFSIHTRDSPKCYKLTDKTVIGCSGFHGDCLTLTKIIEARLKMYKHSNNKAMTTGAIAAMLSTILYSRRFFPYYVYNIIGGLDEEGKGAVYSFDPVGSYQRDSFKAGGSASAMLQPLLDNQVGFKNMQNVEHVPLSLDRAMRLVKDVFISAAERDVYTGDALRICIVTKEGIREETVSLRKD
# HL-60 [8] = assay: Inhibition of proteasome in human HL60 cells assessed as increase in accumulation of ubiquitinated proteins at 12.5 to 50 uM incubated for 4 hrs by Western blot analysis; type: functional, cell-based
# HL-60 [9] = assay: Induction of apoptosis in human HL60 cells assessed as ROS generation; type: functional, cell-based
# HL-60 [10] = assay: Induction of apoptosis in human HL60 cells assessed as increase in cleavage of caspase 3 incubated for 4 hrs by Western blot analysis; type: functional, cell-based
# Proteasome = assay: Inhibition of proteasome in human HL60 cells assessed as accumulation of ubiquitinated proteins at 5 uM incubated for 4 hrs in presence of 5 mM nucleophile, NAC by Western blot analysis; type: subcellular
# [11] = Binding affinity to NAC methyl ester in PBS-MeOH (7:3) solution assessed as methyl 3-[[(1R,6S)-6-[[(1S,4aR,6R,8aR)-6-hydroxy-5,5,8a-trimethyl-2-methylene-decalin-1-yl]methyl]-2,5-dioxo-7-oxabicyclo[4.1.0]hept-3-en-3-yl]methylsulfanyl]-2-acetamido-propanoate formation at 1 mM by HPLC analysis
# HL-60 [12] = assay: Inhibition of proteasome in human HL60 cells assessed as increase in accumulation of ubiquitinated proteins at 1.25 to 5 uM incubated for 4 hrs by Western blot analysis; type: functional, cell-based
# [13] = Binding affinity to NAC methyl ester assessed as methyl 3-[[(1R,6S)-6-[[(1S,4aR,6R,8aR)-6-hydroxy-5,5,8a-trimethyl-2-methylene-decalin-1-yl]methyl]-2,5-dioxo-7-oxabicyclo[4.1.0]hept-3-en-3-yl]methylsulfanyl]-2-acetamido-propanoate formation by UV spectra analysis
# HL-60 [14] = assay: Induction of apoptosis in human HL60 cells assessed as DNA fragmentation at 5 uM preincubated with 50 uM pan caspase inhibitor, z-VAD-FMK for 1 hr followed by incubation with compound for 4 hrs by ethidium bromide staining based agarose gel electrophoresis method; type: functional, cell-based
# HL-60 [15] = assay: Antiproliferative activity against human HL60 cells assessed as cell viability at 5 to 10 uM incubated for 48 hrs in presence of 5 mM nucleophile, NAC by trypan blue dye exclusion assay; type: functional, cell-based
# [16] = Binding affinity to NAC methyl ester in PBS-MeOH (7:3) solution assessed as methyl 4-[[(1R,6S)-6-[[(1S,4aR,6R,8aR)-6-hydroxy-5,5,8a-trimethyl-2-methylene-decalin-1-yl]methyl]-3-[(2-acetamido-3-methoxy-3-oxo-propyl)sulfanylmethyl]-2,5-dioxo-7-oxabicyclo[4.1.0]heptan-4-yl]sulfanyl]-3-acetamido-butanoate formation at 1 mM by HPLC analysis
# HL-60 [17] = assay: Induction of apoptosis in human HL60 cells assessed as caspase 3 cleavage at 5 uM incubated for 4 hrs in presence of 5 mM nucleophile, NAC by Western blot analysis; type: functional, cell-based
# [18] = Binding affinity to NAC methyl ester in PBS-MeOH (7:3) solution at 1 mM by ESI/LC-MS analysis
# HL-60 [19] = assay: Antiproliferative activity against human HL60 cells assessed as cell viability at 0.5 to 1 uM incubated for 48 hrs in presence of 5 mM nucleophile, NAC by trypan blue dye exclusion assay; type: functional, cell-based
# [20] = Binding affinity to NAC methyl ester in PBS-MeOH (7:3) solution assessed as methyl 3-[[(1R,6S)-6-[[(1S,4aR,6R,8aR)-6-hydroxy-5,5,8a-trimethyl-2-methylene-decalin-1-yl]methyl]-3-(hydroxymethyl)-2,5-dioxo-7-oxabicyclo[4.1.0]heptan-4-yl]sulfanyl]-2-acetamido-propanoate formation at 1 mM by HPLC analysis
# [21] = target: T1, Proteasome Macropain subunit MB1 (Homo sapiens); assay: Inhibition of chymotrypsin-like activity of beta5 subunit of 20S proteasome in human erythrocytes at 100 uM using Suc-LLVY-MCA as substrate preincubated with enzyme for 10 mins followed by substrate addition and measured after 3 hrs by fluorescence spectrophotometeric analysis
# HL-60 [22] = assay: Induction of apoptosis in human HL60 cells assessed as DNA fragmentation at 100 uM preincubated with 50 uM pan caspase inhibitor, z-VAD-FMK for 1 hr followed by incubation with compound for 4 hrs by ethidium bromide staining based agarose gel electrophoresis method; type: functional, cell-based
# HL-60 [23] = assay: Inhibition of proteasome in human HL60 cells assessed as accumulation of ubiquitinated proteins at 100 uM incubated for 4 hrs by Western blot analysis; type: functional, cell-based
# [24] = target: Proteasome Macropain subunit (Homo sapiens) (UniProt P49721); assay: Inhibition of trypsin-like activity of beta2 subunit of 20S proteasome in human erythrocytes at 100 uM using Boc-LRR-MCA as substrate preincubated with enzyme for 10 mins followed by substrate addition and measured after 3 hrs by fluorescence spectrophotometric analysis
# [25] = target: T3, Proteasome component C5 (Homo sapiens); assay: Inhibition of caspase-like activity of beta1 subunit of 20S proteasome in human erythrocytes at 100 uM using Z-LLE-MCA as substrate preincubated with enzyme for 10 mins followed by substrate addition and measured after 3 hrs by fluorescence spectrophotometeric analysis
# [26] = Binding affinity to NAC methyl ester in PBS-MeOH (7:3) solution at 1 mM by HPLC analysis
# [27] = Binding affinity to NAC methyl ester in PBS-MeOH (7:3) solution assessed as disappearance of peak regarding parent compound at 1 mM measured within 1 min by HPLC analysis
# COLO 201 = assay: Cytotoxicity against human COLO201 cells; type: functional, cell-based
# Proteasome Macropain subunit (Homo sapiens), sequence (P49721 whole entry, the tested form may be a part): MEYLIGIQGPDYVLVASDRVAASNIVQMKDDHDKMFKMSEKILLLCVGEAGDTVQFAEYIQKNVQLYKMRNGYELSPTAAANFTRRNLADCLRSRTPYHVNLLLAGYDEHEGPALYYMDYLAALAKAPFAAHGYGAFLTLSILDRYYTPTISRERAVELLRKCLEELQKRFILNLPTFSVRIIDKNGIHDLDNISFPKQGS
SMILES,inhibition [1],Activity (HL-60 [2]),IC50 (HL-60 [3]) [µM],Activity (HL-60 [4]),inhibition [5],IC50 [6] [µM],inhibition [7],inhibition (HL-60 [8]),Activity (HL-60 [9]),Activity (HL-60 [10]),inhibition (Proteasome),Activity [11],inhibition (HL-60 [12]),Activity [13],Activity (HL-60 [14]),Activity (HL-60 [15]),Activity [16],Activity (HL-60 [17]),Activity [18],further results
C=C1CC[C@H]2C(C)(C)[C@H](O)CC[C@]2(C)[C@H]1C[C@]12O[C@H]1[C@H](O)C(COC(=O)C[C@H](C)O)=CC2=O,Dose-dependent effect,Dose-dependent effect,15,inactive,Dose-dependent effect,31.9,Dose-dependent effect,Active,inactive,Dose-dependent effect,–,–,–,–,–,–,–,–,–,–
C=C1CC[C@H]2C(C)(C)[C@H](O)CC[C@]2(C)[C@H]1C[C@]12O[C@H]1C(=O)C(COC(=O)C[C@H](C)O)=CC2=O,Dose-dependent effect,Dose-dependent effect,1.3,–,Dose-dependent effect,5.3,Dose-dependent effect,–,inactive,Dose-dependent effect,inactive,Active,Active,Active,inactive,inactive,Active,inactive,Active,–
C=C1CC[C@H]2C(C)(C)[C@H](O)CC[C@]2(C)[C@H]1C[C@]12O[C@H]1C(=O)C(CO)=CC2=O,Dose-dependent effect,Dose-dependent effect,0.3,–,Dose-dependent effect,26.3,Dose-dependent effect,–,inactive,Dose-dependent effect,inactive,–,Active,–,inactive,–,–,inactive,Active,inhibition (HL-60 [19]): inactive; Activity [20]: Active
C=C1CC[C@H]2C(C)(C)[C@H](O)CC[C@]2(C)[C@H]1C[C@]12O[C@H]1[C@H](O)C(CO)=CC2=O,–,Dose-dependent effect,25.3,–,–,> 100,–,–,inactive,Dose-dependent effect,–,–,–,–,–,–,–,–,–,inhibition [21]: inactive; Activity (HL-60 [22]): inactive; inhibition (HL-60 [23]): inactive; inhibition [24]: inactive; inhibition [25]: inactive; Activity [26]: inactive
C=C1CC[C@H]2C(C)(C)[C@H](O)CC[C@]2(C)[C@H]1C[C@]12O[C@H]1[C@H](O)C(COC(=O)[C@H](O)[C@H](C)O)=CC2=O,Dose-dependent effect,Dose-dependent effect,21.6,inactive,Dose-dependent effect,93.6,Dose-dependent effect,Active,inactive,Dose-dependent effect,–,–,–,–,–,–,–,–,–,–
C=C1CC[C@H]2C(C)(C)[C@H](O)CC[C@]2(C)[C@H]1C[C@]12O[C@H]1C(=O)C(COC(=O)[C@H](O)[C@H](C)O)=CC2=O,Dose-dependent effect,Dose-dependent effect,2.6,–,Dose-dependent effect,5.7,Dose-dependent effect,–,inactive,Dose-dependent effect,inactive,Active,Active,Active,inactive,inactive,Active,inactive,Active,Activity [27]: Active; IC50 (COLO 201): 96.6 µM
